In ChEMBL document CHEMBL3784996, “Copper-catalyzed three-component synthesis of aminonaphthoquinone-sulfonylamidine conjugates and in vitro evaluation of their antiproliferative activity” (Bioorg Med Chem Lett, 2016):

Tests used:
HEK293 = assay: Cytotoxicity against HEK293 cells after 48 hrs by MTT assay; type: cell-based; conditions: Homo sapiens, HEK293, 48 h
HeLa = assay: Cytotoxicity against human HeLa cells after 48 hrs by MTT assay; type: functional, cell-based
A549 = assay: Cytotoxicity against human A549 cells after 48 hrs by MTT assay; type: functional, cell-based; conditions: A549, 48 h
MCF7 [1] = assay: Cytotoxicity against human MCF7 cells after 48 hrs by MTT assay; type: functional, cell-based; conditions: MCF7, 48 h
[2] = Cytotoxicity against human DU145 cells after 48 hrs by MTT assay; type: functional, cell-based; conditions: DU-145, 48 h
MCF7 [3] = assay: Induction of cell cycle arrest in human MCF7 cells assessed as accumulation at sub G1 phase at 5 uM after 48 hrs by propidium iodide staining based flow cytometric analysis (reference value: 2.58 %); type: functional
MCF7 [4] = assay: Induction of cell cycle arrest in human MCF7 cells assessed as accumulation at G2/M phase at 5 uM after 48 hrs by propidium iodide staining based flow cytometric analysis (reference value: 28.45 %); type: functional
MCF7 [5] = assay: Induction of cell cycle arrest in human MCF7 cells assessed as accumulation at S phase at 2.5 uM after 48 hrs by propidium iodide staining based flow cytometric analysis (reference value: 5.04 %); type: functional
MCF7 [6] = assay: Induction of cell cycle arrest in human MCF7 cells assessed as accumulation at G0/G1 phase at 5 uM after 48 hrs by propidium iodide staining based flow cytometric analysis (reference value: 62.95 %); type: functional
MCF7 [7] = assay: Induction of cell cycle arrest in human MCF7 cells assessed as accumulation at sub G1 phase at 2.5 uM after 48 hrs by propidium iodide staining based flow cytometric analysis (reference value: 2.58 %); type: functional
MCF7 [8] = assay: Induction of cell cycle arrest in human MCF7 cells assessed as accumulation at G0/G1 phase at 2.5 uM after 48 hrs by propidium iodide staining based flow cytometric analysis (reference value: 62.95 %); type: functional
MCF7 [9] = assay: Induction of cell cycle arrest in human MCF7 cells assessed as accumulation at S phase at 5 uM after 48 hrs by propidium iodide staining based flow cytometric analysis (reference value: 5.04 %); type: functional
MCF7 [10] = assay: Induction of cell cycle arrest in human MCF7 cells assessed as accumulation at G2/M phase at 2.5 uM after 48 hrs by propidium iodide staining based flow cytometric analysis (reference value: 28.45 %); type: functional

Compound	IC50 (HEK293)	IC50 (HeLa)	IC50 (A549)	IC50 (MCF7 [1])	IC50 [2]	Activity (MCF7 [3])	Activity (MCF7 [4])	Activity (MCF7 [5])	Activity (MCF7 [6])	Activity (MCF7 [7])	Activity (MCF7 [8])	Activity (MCF7 [9])	Activity (MCF7 [10])
C#CCNC1=CC(=O)c2ccccc2C1=O	77.6 µM	30.9 µM	47.3 µM	24.1 µM	39.8 µM	–	–	–	–	–	–	–	–
Cc1ccc(S(=O)(=O)/N=C(/CCNC2=CC(=O)c3ccccc3C2=O)Nc2cc(F)c(F)c(F)c2)cc1	82.6 µM	8.58 µM	10.2 µM	6.61 µM	12.6 µM	–	–	–	–	–	–	–	–
Cc1ccc(S(=O)(=O)/N=C(/CCNC2=CC(=O)c3ccccc3C2=O)Nc2ccc(F)c(F)c2)cc1	55.2 µM	8.79 µM	16.7 µM	9.42 µM	12.9 µM	–	–	–	–	–	–	–	–
Cc1ccc(S(=O)(=O)/N=C(/CCNC2=CC(=O)c3ccccc3C2=O)Nc2ccccc2[N+](=O)[O-])cc1	69.6 µM	3.31 µM	5.01 µM	3.09 µM	7.59 µM	2.6%	23.6%	3.11%	68.18%	2.5%	63.91%	3.09%	27.47%
Cc1ccc(S(=O)(=O)/N=C(/CCNC2=CC(=O)c3ccccc3C2=O)Nc2ccccc2I)cc1	49.4 µM	19.1 µM	24.7 µM	15.5 µM	11.7 µM	–	–	–	–	–	–	–	–
COc1ccc(N/C(CCNC2=CC(=O)C(C)=C(C)C2=O)=N\S(=O)(=O)c2ccc(C)cc2)cc1OC	79.4 µM	10.5 µM	15.5 µM	8.71 µM	14 µM	–	–	–	–	–	–	–	–
Cc1ccc(S(=O)(=O)/N=C(\N)CCNC2=CC(=O)c3ccccc3C2=O)cc1	63.1 µM	24.6 µM	26.6 µM	18.6 µM	30.9 µM	–	–	–	–	–	–	–	–
Cc1ccc(S(=O)(=O)/N=C(/CCNC2=CC(=O)c3ccccc3C2=O)Nc2ccc(F)cc2)cc1	55.1 µM	5.89 µM	9.33 µM	4.26 µM	12.2 µM	–	–	–	–	–	–	–	–
COc1ccc(N/C(CCNC2=CC(=O)c3ccccc3C2=O)=N\S(=O)(=O)c2ccc(C)cc2)cc1	35.1 µM	7.59 µM	25.5 µM	6.03 µM	12 µM	–	–	–	–	–	–	–	–
Cc1ccc(S(=O)(=O)/N=C(/CCNC2=CC(=O)c3ccccc3C2=O)Nc2cccc(C(F)(F)F)c2)cc1	91.5 µM	77.6 µM	78.5 µM	89.1 µM	84.1 µM	–	–	–	–	–	–	–	–
Cc1ccc(S(=O)(=O)/N=C(/CCNC2=CC(=O)c3ccccc3C2=O)Nc2ccc(Cl)cc2Cl)cc1	41.9 µM	20.5 µM	32.9 µM	17 µM	18.6 µM	–	–	–	–	–	–	–	–
COc1ccc(N/C(CCNC2=C(Br)C(=O)c3ccccc3C2=O)=N\S(=O)(=O)c2ccc(C)cc2)cc1OC	35.3 µM	5.37 µM	17.5 µM	6.61 µM	29.6 µM	–	–	–	–	–	–	–	–
Cc1ccc(S(=O)(=O)/N=C(/CCNC2=CC(=O)c3ccccc3C2=O)NCCc2c[nH]c3ccccc23)cc1	42.5 µM	9.33 µM	17 µM	7.76 µM	28.4 µM	–	–	–	–	–	–	–	–
Cc1ccc(S(=O)(=O)/N=C(/CCNC2=CC(=O)c3ccccc3C2=O)NC2CCCCC2)cc1	50.1 µM	9.77 µM	14.7 µM	7.58 µM	16.6 µM	–	–	–	–	–	–	–	–
COc1ccc(N/C(CCNC2=CC(=O)c3ccccc3C2=O)=N\S(=O)(=O)c2ccc(C(C)(C)C)cc2)cc1OC	62.3 µM	11.5 µM	16.2 µM	8.71 µM	14.5 µM	–	–	–	–	–	–	–	–
COc1cc(N/C(CCNC2=CC(=O)c3ccccc3C2=O)=N\S(=O)(=O)c2ccc(C)cc2)cc(OC)c1OC	75.8 µM	3.39 µM	7.94 µM	3.05 µM	9.33 µM	3.01%	5.23%	4.14%	84.55%	1.86%	64.17%	5.19%	27.51%
Cc1ccc(S(=O)(=O)/N=C(/CCNC2=CC(=O)c3ccccc3C2=O)Nc2ccc(Cl)cc2)cc1	65.4 µM	13.4 µM	29.9 µM	7.08 µM	32.4 µM	–	–	–	–	–	–	–	–
Cc1ccc(S(=O)(=O)/N=C(/CCNC2=CC(=O)c3ccccc3C2=O)NCc2ccccc2)cc1	80.2 µM	3.98 µM	7.41 µM	3.63 µM	9.12 µM	–	–	–	–	–	–	–	–
Cc1ccc(S(=O)(=O)/N=C(/CCNC2=CC(=O)c3ccccc3C2=O)Nc2cccc(C)c2)cc1	56.2 µM	9.06 µM	18.7 µM	8.12 µM	10.2 µM	–	–	–	–	–	–	–	–
COc1ccc(N/C(CCNC2=CC(=O)c3ccccc3C2=O)=N\S(=O)(=O)c2ccc(C)cc2)c(OC)c1	83 µM	67.6 µM	126 µM	30.2 µM	67.2 µM	–	–	–	–	–	–	–	–
Cc1ccc(S(=O)(=O)/N=C(/CCNC2=CC(=O)c3ccccc3C2=O)NC(C)C)cc1	71.6 µM	30.2 µM	44.3 µM	16.5 µM	28.5 µM	–	–	–	–	–	–	–	–
COc1ccc(N/C(CCNC2=CC(=O)c3ccccc3C2=O)=N\S(=O)(=O)c2ccc(C)cc2)cc1OC	60.6 µM	14.5 µM	20.4 µM	12.3 µM	17.8 µM	–	–	–	–	–	–	–	–
COc1cccc2c1C(=O)c1c(O)c3c(c(O)c1C2=O)C[C@@](O)(C(=O)CO)C[C@@H]3O[C@H]1C[C@H](N)[C@H](O)[C@H](C)O1 [DOXORUBICIN]	–	1.59 µM	2.34 µM	–	1.08 µM	–	–	–	–	–	–	–	–
